# Results published in patent US5217984A, “1-phenyl substituted-1H, 3H-thiazole [3,4-a] benzimidazoles and pharmaceutical compositions containing them” (priority 1990, dated 1993).
# Read-outs that look alike come from different tables or passages of the source.
# Key:
# [1] = relative lipophylia (RM) by reverse phase thin layer chromatography; format: physicochemical; details: rp-tlc, acetone/water 2:1
# Experimental: The lipophylic character of the synthesized compounds was evaluated with reverse phase, thin layer chromatography.
# The non-polar stationary phase is represented by plates of Merck 60 F254 silanized silica gel, whereas the polar phase consists of an acetone/water mixture (2:1).
# The compounds were solubilized in chloroform (3 mg/ml).
# The RM values were calculated from the average experimental values of RF, obtained from three chromatograms using the formula: […]
# Higher values of RM corresponding to lower values of RF indicate more lipophylic compounds.
# [2] = tested on: HIV; experiment: HIV-induced cytopathogenicity in human T4-lymphocyte cell line (CEM); format: cell-based; details: for EC50: Human immunodeficiency virus 1, CCRF-CEM, read-out: EC50 (50% reduction of the viral cytopathic effect); for TI50 (therapeutic index): IC50/EC50 ratio
# Experimental: (§1) For their effects on HIV-induced cytopathogenicity in human T4 -lymphocyte cell line (CEM), the compounds of the present invention were evaluated according to NIH procedures as described by R. Vince et al., Biochem. Biophys.Res.Comm., 156, 1046, 1988 and by O. S. Weislow et al. J. Natl.Canc. Inst., 81. 577,1988.
# It was possible to evaluate for many compounds of the invention:
# a) the effective concentration 50% (EC50), which represents the concentration of the tested compound resulting in 50% reduction of the viral cytopathic effect.
# c) the therapeutic index TI50 which is determined as the IC50 /EC50 ratio.
# Only substances able to cause at least a 50% or greater reduction of viral cytopathic effect are kept in consideration for further investigation.
# (§2) The methods, the test conditions, the evaluation criteria of the anti-HIV activity in vitro are described by Weislow, O. W., Kieser, R., Fine, D., Bader, J., Shoemaker, R. H., Boyd, M. R.: New soluble-formazan assay for HIV-1 cytopathic effects: application to high-flux screening of synthetic and natural products for AIDS-antiviral activity. J. Nati, Cancer Inst. 81:577-586,1989.
# [3] = tested on: human T4-lymphocyte cell line (CEM); experiment: growth inhibition of normal uninfected cells (CEM); format: cell-based; details: CCRF-CEM, read-out: IC50 (toxic concentration, 50% growth inhibition of normal uninfected cells)
# Experimental: as §1
# b) the inhibitory concentration 50% (IC50) which represents the toxic concentration of drug resulting in 50% growth inhibition of normal uninfected cells.
# as §2
# [4] = silanized silica gel Merck 60 F254 plates, average of three chromatograms, read-out: RM (relative lipophylia)
Structure (SMILES),chromatographic logP [1],further results
FC(F)(F)c1cccc(C2SCc3nc4ccccc4n32)c1 (stereo not shown) [XV],-0.378,–
Clc1ccc(C2SCc3nc4ccccc4n32)cc1 (stereo not shown) [IX],-0.402,–
"N#Cc1cccc(C2SCc3nc4ccccc4n32)c1 (stereo not shown) [XXXIII, 1-(3-cyano-phenyl)-1H,3H-thiazole [3,4-a] benzimidazole]",–,EC50 ([2]; HIV-infected CEM cells): 2.94 µM; TI50 (therapeutic index) [2]: 13.1; IC50 ([3]; uninfected CEM cells): 38.3 µM
O=[N+]([O-])c1ccc(Cl)c(C2SCc3nc4ccccc4n32)c1 (stereo not shown) [XXX],-0.423,EC50 ([2]; HIV-infected CEM cells): 15.9 µM; TI50 (therapeutic index) [2]: > 3.42; IC50 ([3]; uninfected CEM cells): > 54.4 µM
Clc1ccc(C2SCc3nc4ccccc4n32)cc1Cl (stereo not shown) [XXVII],-0.362,–
"O=[N+]([O-])c1ccc(Cl)cc1C1SCc2nc3ccccc3n21 (racemic) [XXXII, (±) 1-(2-nitro-5-chlorophenyl)-1H,3H-thiazole [3,4-a] benzimidazole]",-0.387,–
O=[N+]([O-])c1cc(C2SCc3nc4ccccc4n32)ccc1Cl (stereo not shown) [XXXI],-0.414,–
FC(F)(F)c1ccc(C2SCc3nc4ccccc4n32)cc1 (stereo not shown) [XVI],-0.387,–
Clc1ccc(C2SCc3nc4ccccc4n32)c(Cl)c1 (stereo not shown) [XXV],-0.329,–
FC(F)(F)c1ccccc1C1SCc2nc3ccccc3n21 (stereo not shown) [XIV],-0.349,–
Clc1cccc(C2SCc3nc4ccccc4n32)c1 (stereo not shown) [VIII],-0.428,–
Clc1cccc(C2SCc3nc4ccccc4n32)c1Cl (stereo not shown) [XXIV],-0.355,–
Clc1ccccc1C1SCc2nc3ccccc3n21 (stereo not shown) [VII],-0.393,–
Brc1ccccc1C1SCc2nc3ccccc3n21 (stereo not shown) [I],-0.41,–
Cc1ccccc1C1SCc2nc3ccccc3n21 (stereo not shown) [X],-0.452,–
N#Cc1ccc(C2SCc3nc4ccccc4n32)cc1 (stereo not shown) [XVIII],-0.506,–
"Fc1cccc(Cl)c1C1SCc2nc3ccccc3n21 (racemic) [XXIX, (±) 1-(2-chloro-6-fluorophenyl)-1H,3H-thiazole [3,4-a] benzimidazole]",-0.452,EC50 ([2]; HIV-infected CEM cells): 0.596 µM; TI50 (therapeutic index) [2]: 32.8; IC50 ([3]; uninfected CEM cells): 19.6 µM

Structure (SMILES),chromatographic logP [1],further results
"Fc1ccccc1C1SCc2nc3ccccc3n21 (racemic) [IV, (±) 1-(2-fluorophenyl)-1H,3H-thiazole [3,4-a] benzimidazole]",-0.468,EC50 ([2]; HIV-infected CEM cells): 7.63 µM; TI50 (therapeutic index) [2]: > 16.5; IC50 ([3]; uninfected CEM cells): > 126 µM
"O=[N+]([O-])c1ccccc1C1SCc2nc3ccccc3n21 (stereo not shown) [XXXVI, 1-(2-nitro-phenyl)-1H,3H-thiazole [3,4-a] benzimidazole]",–,EC50 ([2]; HIV-infected CEM cells): 17.2 µM; TI50 (therapeutic index) [2]: 2.16; IC50 ([3]; uninfected CEM cells): 37.2 µM
COc1ccc(C2SCc3nc4ccccc4n32)cc1 (stereo not shown) [XIII],-0.477,–
Fc1ccc(C2SCc3nc4ccccc4n32)cc1F (stereo not shown) [XXIII],-0.43,–
COc1cccc(C2SCc3nc4ccccc4n32)c1 (stereo not shown) [XII],-0.436,–
Fc1cccc(C2SCc3nc4ccccc4n32)c1F (stereo not shown) [XIX],-0.452,–
Clc1cc(Cl)cc(C2SCc3nc4ccccc4n32)c1 (stereo not shown) [XXVIII],–,"chromatographic logP [1, 4]: -0.337"
Fc1ccc(C2SCc3nc4ccccc4n32)c(F)c1 (stereo not shown) [XX],-0.452,–
Cc1cccc(C2SCc3nc4ccccc4n32)c1 (stereo not shown) [XI],-0.399,–
Fc1ccc(C2SCc3nc4ccccc4n32)cc1 (stereo not shown) [VI],-0.412,–
"Clc1cccc(Cl)c1C1SCc2nc3ccccc3n21 (racemic) [XXVI, (±) 1-(2,6-dichlorophenyl)-1H,3H-thiazole [3,4-a] benzimidazole]",-0.402,EC50 ([2]; HIV-infected CEM cells): 0.257 µM; TI50 (therapeutic index) [2]: 86.8; IC50 ([3]; uninfected CEM cells): 22.3 µM
Brc1cccc(C2SCc3nc4ccccc4n32)c1 (stereo not shown) [II],-0.406,–
Oc1cccc(C2SCc3nc4ccccc4n32)c1 (stereo not shown) [XVII],-0.591,EC50 ([2]; HIV-infected CEM cells): 114 µM; TI50 (therapeutic index) [2]: 1.11; IC50 ([3]; uninfected CEM cells): 127 µM
"Fc1cccc(C2SCc3nc4ccccc4n32)c1 (racemic) [V, (±) 1-(3-fluorophenyl)-1H,3H-thiazole [3,4-a] benzimidazole]",-0.434,EC50 ([2]; HIV-infected CEM cells): 5.74 µM; TI50 (therapeutic index) [2]: 11.8; IC50 ([3]; uninfected CEM cells): 67.4 µM
Brc1ccc(C2SCc3nc4ccccc4n32)cc1 (stereo not shown) [III],-0.43,–
"Fc1cccc(F)c1C1SCc2nc3ccccc3n21 (racemic) [XXII, (±) 1-(2,6-difluorophenyl)-1H,3H-thiazole [3,4-a] benzimidazole]",–,"chromatographic logP [1, 4]: -0.475; EC50 [2]: 1 µM; TI50 (therapeutic index) [2]: 80; IC50 [3]: 80 µM"
